Data as given in patent US4710469A, “Novel phosphotyrosyl protein phosphatase” (Merck & Co., Inc., priority 1986, dated 1987).
Where two headings read alike, the source gives them in different places.

Assays:
[1] = target: T1, Human placental alkaline phosphatase (obtained commercially) (Homo sapiens, UniProt P05187); assay: biochemical; conditions: for inhibition at 10000 µM: compound at 10 mM, read-out: % change of activity; for inhibition at 10000 µM / % change of activity: 1 mM PNPP, glycine NaOH pH 10, MgCl2, 30°; for % change of activity: compound at 10 μM
T1 construct: purchased Worthington Biochem; host or cells: human placenta
T1 sequence (P05187 23-506 limits assumed): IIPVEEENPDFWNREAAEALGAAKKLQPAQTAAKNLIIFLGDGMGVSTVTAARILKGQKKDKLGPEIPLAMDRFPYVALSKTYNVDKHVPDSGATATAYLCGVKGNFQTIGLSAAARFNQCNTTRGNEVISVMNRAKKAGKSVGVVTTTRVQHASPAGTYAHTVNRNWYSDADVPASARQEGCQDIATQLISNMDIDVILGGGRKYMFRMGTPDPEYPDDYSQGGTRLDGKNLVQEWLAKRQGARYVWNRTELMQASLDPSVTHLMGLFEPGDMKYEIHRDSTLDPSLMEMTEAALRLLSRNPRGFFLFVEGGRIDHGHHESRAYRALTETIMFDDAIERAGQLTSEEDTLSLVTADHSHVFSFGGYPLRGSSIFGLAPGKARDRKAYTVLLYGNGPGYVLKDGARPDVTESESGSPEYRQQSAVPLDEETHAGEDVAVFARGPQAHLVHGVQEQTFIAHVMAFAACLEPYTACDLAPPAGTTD
Procedure: (§1) Human placental alkaline phosphatase and prostatic phosphatase were obtained commercially. Alkaline phosphatase was assayed in a reaction mixture containing 50 mM glycine NaOH, pH 10, MgCl2 and 1 mM PNPP; prostatic acid phosphatase was assayed in a reaction mixture containing 100 mM acetate, pH 5, 0.1 mM PNPP, and purified phosphotyrosyl protein phosphatase was assayed in 100 mM acetate, pH 5, 0.8 mM PNPP, 0.2 mg/ml BSA and 5 mM DTT. All assays were performed at 30°.
(§2) p-Nitrophenylphosphatase activity was determined in a final volume of […] containing 100 mM acetate, pH 5, 5 mM DTT, 2.5 mg/ml BSA and 1 mM PNPP. The reaction was carried out at 30° C. and terminated with 0.5 ml of 0.2N NaOH. Alkaline PNPP phosphatase activity was similarly determined except that 50 mM glycine NaOH, pH 10, was used as buffer and 10 mM MgCl2 was included in the reaction mixture. Absorption at 410 nm wavelength was recorded on a Gilson spectrophotometer. Units of phosphatase activity were calculated with a millimolar extinction coefficient of 17.5 for p-nitrophenol at 410 nm and pH 11.

[2] = target: T2, Human prostatic acid phosphatase (obtained commercially) (Homo sapiens, UniProt P15309); assay: biochemical; conditions: for inhibition at 10000 µM: compound at 10 mM, read-out: % change of activity; for inhibition at 10000 µM / % change of activity: 0.1 mM PNPP, 100 mM acetate pH 5, 30°; for % change of activity: compound at 10 μM
T2 construct: purchased Sigma; host or cells: human semen
T2 sequence (P15309 33-386): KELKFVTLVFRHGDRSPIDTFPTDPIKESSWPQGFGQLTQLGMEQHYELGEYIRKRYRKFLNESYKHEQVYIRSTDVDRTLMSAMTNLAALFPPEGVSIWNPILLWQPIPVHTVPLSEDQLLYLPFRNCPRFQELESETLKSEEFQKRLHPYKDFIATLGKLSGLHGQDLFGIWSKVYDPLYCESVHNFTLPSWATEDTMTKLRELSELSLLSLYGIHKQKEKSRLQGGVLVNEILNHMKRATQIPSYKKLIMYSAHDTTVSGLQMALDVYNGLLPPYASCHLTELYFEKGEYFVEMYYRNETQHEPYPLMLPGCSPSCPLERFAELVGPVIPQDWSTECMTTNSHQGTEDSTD
Procedure: as §1, §2

[3] = system: Purified phosphotyrosyl protein phosphatase from human placental membranes; assay type: biochemical
Procedure: as §1, §2

[4] = system: Purified phosphotyrosyl protein phosphatase from human placental membranes; assay type: biochemical; remark: listed apart in the source
Procedure: Phosphotyrosine phosphatase activity was measured by the release of ^32 Pi from ^32 P-Tyr-angiotensin II in a […] reaction mixture containing 0.1M acetate, pH 5, 5 mM DTT, 2.5 mg/ml BSA and 0.05 mM ^32 Pi of ^32 P-Tyr-angiotensin II. After incubation at 30° for 30 minutes, the reaction was terminated by the addition of […] of 10% TCA. 0.2 ml of 1.25 mM KH2 PO4 in 1N H2 SO4 was added as carrier. 0.1 ml of 5% ammonium molybdate was then added. After extraction with 0.5 ml of 1:1 isobutanol:benzene, 0.25 ml of the upper phase was taken and mixed with 10 ml Aquasol II to be counted in a packard scintillation counter.

[5] = pH 10, read-out: % change of activity
[6] = pH 5, read-out: % change of activity
[7] = compound at 10 mM, 0.8 mM PNPP, 100 mM acetate pH 5, 0.2 mg/ml BSA, 5 mM DTT, 30°
[8] = compound at 10 μM, 0.8 mM PNPP, 100 mM acetate pH 5, 0.2 mg/ml BSA, 5 mM DTT, 30°

Molecule: O=C(O)CN(CCN(CC(=O)O)CC(=O)O)CC(=O)O [EDTA, Ethylene diamine tetraacetate]
- inhibition at 20000 µM [1, 5]: 94%
- effect on PNPP phosphatase activity [2]: not affected
- inhibition at 20000 µM [2, 6]: 2.2%
- stimulation of PNPP phosphatase activity [3]: 79%
- % change of activity ([3]; purified phosphotyrosyl protein phosphatase, pH 5, 20000 µM): +78.9%
- stimulation of 32P-Tyr-angiotensin II phosphatase activity [4]: 29.8%

Molecule: O=C(O)[C@H](O)[C@@H](O)C(=O)O [L-tartrate]
- inhibition at 5000 µM [1, 5]: 10.4%
- inhibition at 5000 µM [2, 6]: 97.6%
- effect on PNPP phosphatase activity [3]: nearly completely inhibited
- % change of activity ([3]; purified phosphotyrosyl protein phosphatase, pH 5, 5000 µM): -98.1%
- inhibition of 32P-Tyr-angiotensin II phosphatase activity [4]: 27.6%

Molecule: N[C@@H](COP(=O)(O)O)C(=O)O [p-serine, phosphoserine]
- inhibition at 10000 µM [1]: 92.6%
- inhibition at 10000 µM [2]: 19%
- effect on PNPP phosphatase activity ([2]; concentration not given): slightly inhibited
- % change of activity [3, 7]: +73.4%
- stimulation of PNPP phosphatase activity ([3]; text summary of Table I, phosphoserine 10 mM per table): 73%
- stimulation of 32P-Tyr-angiotensin II phosphatase activity ([4]; compound at 10 mM): 4.3%

Molecule: N[C@@H](Cc1ccc(OP(=O)(O)O)cc1)C(=O)O [p-tyrosine, phosphotyrosine]
- inhibition at 10000 µM [1]: 85.6%
- inhibition at 10000 µM [2]: 24.4%
- % change of activity [3, 7]: -21.6%
- effect on PNPP phosphatase activity ([3]; concentration not given): slightly inhibited
- inhibition of 32P-Tyr-angiotensin II phosphatase activity ([4]; compound at 10 mM): 11.5%

Molecule: [O]=[V]([O-])([O-])[O-] [vanadate]
- % change of activity [1]: -18.3%
- % change of activity [2]: -87.8%
- % change of activity [3, 8]: -38.2%
- effect on PNPP phosphatase activity ([3]; compound at 100 μM): nearly completely inhibited
- inhibition of 32P-Tyr-angiotensin II phosphatase activity ([4]; compound at 10 μM): 46.4%

Molecule: molybdate
- % change of activity [1]: 0%
- % change of activity [2]: -95.0%
- effect on PNPP phosphatase activity ([3]; compound at 10 μM): nearly completely inhibited
- % change of activity [3, 8]: -96.4%
- inhibition of 32P-Tyr-angiotensin II phosphatase activity ([4]; compound at 10 μM): 20.8%
